Measured values: article PMC7054460 (2020)

Columns and labels:
[1] = tested on: Y2 (DNA, duplex, free-base (2H) porphyrin-dU (porphyrin via rigid acetylene linker) at 10 of strand 1 and at 4 of strand 2) CGCATTATATGC/GCATATAATGCG; test: CD titration (porphyrin exciton coupling), Scatchard fit; settings: Na+ 100 mM NaCl + 100 mM Na2HPO4 (assumed from Fig. 2 legend); 4 μM DNA; EtBr 40-800 μM; apparent; local site between adjacent porphyrins; buffer not given; per base
[2] = tested on: Y1 (DNA, duplex, free-base (2H) porphyrin-dU (porphyrin via rigid acetylene linker) at 5 of strand 1 and at 4 of strand 2) CGCATTATATGC/GCATATAATGCG; test: as above; settings: Na+ 100 mM NaCl + 100 mM Na2HPO4 (assumed from Fig. 2 legend); 4 μM DNA; EtBr 40-800 μM; apparent; global intercalation; buffer not given; per base

- Ka (association binding constant) [1]: 3.54 ± 0.4 × 10^5 M^-1
- Ka (association binding constant) [2]: 1.43 ± 0.2 × 10^5 M^-1
Structure (SMILES): CC[n+]1c(-c2ccccc2)c2cc(N)ccc2c2ccc(N)cc21
